Measurements as given in article PMC5813187, “Enhanced Permeability and Binding Activity of Isobutylene‐Grafted Peptides” (Chembiochem, 2017).
Where a SMILES comes first, the peptide text is derived from it.

Columns and labels:
[1] = PAMPA, pH 7.4
[2] = Stability test in presence of GSH; type: physicochemical; settings: around 1 mM peptide in H2O, 1 mM GSH, 37 °C, 48 h, HPLC
Protocol: (§1) GSH solution (to 1 mM) or 1 μL of reconstituted human plasma (Sigma -Aldrich), and the resulting
mixture vortexed for 30 s and then shaken at 37 °C. After 48 h, an aliquot of each reaction mixture was […]

[3] = Stability test in human plasma; type: in vitro ADME; settings: 100 μL of around 1 mM peptide in H2O with 1 μL reconstituted human plasma (Sigma-Aldrich), 37 °C, 48 h, HPLC
Protocol: as §1
mixture vortexed for 30 s and then shaken at 37 °C. […]
DAD1 E, Sig=280,4 Ref =360,100 (SHUANG\ISOBUT YLENE STAPLED SOMATOST AT IN_PLASMA.D)

Row | stability in the presence of glutathione [2] | stability in the presence of glutathione ([2]; listed as Stapled Somatostatin) | stability in human plasma [3] | stability in human plasma ([3]; listed as Stapled Somatostatin) | Compound | Permeability [1] [×10⁻⁶ cm/s] | −log P e [1]
1 | – | – | – | – | CC(=O)N[C@@H](CS)C(=O)N1CCC[C@H]1C(=O)N[C@@H](CC(C)C)C(=O)N[C@@H](CC(=O)O)C(=O)N[C@@H](Cc1ccccc1)C(=O)N[C@@H](C)C(=O)N[C@@H](CS)C(N)=O [II] (Ac-CPLDFAC-NH2) | 0.76 | 5.12
2 | fully stable | No significant degradation | fully stable | No significant degradation | C=C1CSC[C@@H](C(=O)O)NC(=O)[C@H](CO)NC(=O)[C@H]([C@@H](C)O)NC(=O)[C@H](Cc2ccccc2)NC(=O)[C@H]([C@@H](C)O)NC(=O)[C@H](CCCCN)NC(=O)[C@H](Cc2c[nH]c3ccccc23)NC(=O)[C@H](Cc2ccccc2)NC(=O)[C@H](Cc2ccccc2)NC(=O)[C@H](CC(N)=O)NC(=O)[C@H](CCCCN)NC(=O)[C@@H](NC(=O)CNC(=O)[C@H](C)N)CSC1 [stapled somatostatin] | – | –
3 | – | – | – | – | CC(=O)N[C@@H](CS)C(=O)N1CCC[C@H]1C(=O)N[C@@H](CC(=O)O)C(=O)N[C@@H](Cc1ccccc1)C(=O)N[C@@H](CC(C)C)C(=O)N[C@@H](C)C(=O)N[C@@H](CS)C(N)=O [III] (Ac-CPDFLAC-NH2) | <0.001 | –
